Our source for the IC50 values is ChEMBL document CHEMBL2016436, “X-ray crystallographic structure-based design of selective thienopyrazole inhibitors for interleukin-2-inducible tyrosine kinase” (Bioorg Med Chem Lett, 2012).

In test [1] the target is T1, Tyrosine-protein kinase ITK/TSK (Homo sapiens, UniProt Q08881).
T1 sequence (Q08881 whole entry): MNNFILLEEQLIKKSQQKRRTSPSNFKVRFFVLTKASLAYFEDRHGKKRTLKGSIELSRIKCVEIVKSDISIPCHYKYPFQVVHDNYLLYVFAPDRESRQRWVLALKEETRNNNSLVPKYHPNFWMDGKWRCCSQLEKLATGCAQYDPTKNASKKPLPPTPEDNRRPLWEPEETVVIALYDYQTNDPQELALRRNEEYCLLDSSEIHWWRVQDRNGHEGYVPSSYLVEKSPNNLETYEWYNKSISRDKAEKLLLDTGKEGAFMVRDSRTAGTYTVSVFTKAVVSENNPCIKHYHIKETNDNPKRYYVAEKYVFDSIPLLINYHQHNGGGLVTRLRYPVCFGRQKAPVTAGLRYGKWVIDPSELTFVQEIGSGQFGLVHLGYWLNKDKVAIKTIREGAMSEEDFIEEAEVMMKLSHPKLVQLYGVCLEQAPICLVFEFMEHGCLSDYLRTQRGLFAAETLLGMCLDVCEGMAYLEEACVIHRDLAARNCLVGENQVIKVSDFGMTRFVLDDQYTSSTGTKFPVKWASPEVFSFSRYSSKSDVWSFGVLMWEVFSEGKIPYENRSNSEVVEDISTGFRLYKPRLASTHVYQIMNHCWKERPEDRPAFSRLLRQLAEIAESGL
Kind of test: Inhibition of recombinant N-terminus His6 tagged Itk (357-620) autophosphorylation expressed in insect Sf9 cells using [33P]ATP by scintillation counting.

In test [2] the target is T2, Tyrosine-protein kinase TXK (Homo sapiens, UniProt P42681).
T2 sequence (P42681 whole entry): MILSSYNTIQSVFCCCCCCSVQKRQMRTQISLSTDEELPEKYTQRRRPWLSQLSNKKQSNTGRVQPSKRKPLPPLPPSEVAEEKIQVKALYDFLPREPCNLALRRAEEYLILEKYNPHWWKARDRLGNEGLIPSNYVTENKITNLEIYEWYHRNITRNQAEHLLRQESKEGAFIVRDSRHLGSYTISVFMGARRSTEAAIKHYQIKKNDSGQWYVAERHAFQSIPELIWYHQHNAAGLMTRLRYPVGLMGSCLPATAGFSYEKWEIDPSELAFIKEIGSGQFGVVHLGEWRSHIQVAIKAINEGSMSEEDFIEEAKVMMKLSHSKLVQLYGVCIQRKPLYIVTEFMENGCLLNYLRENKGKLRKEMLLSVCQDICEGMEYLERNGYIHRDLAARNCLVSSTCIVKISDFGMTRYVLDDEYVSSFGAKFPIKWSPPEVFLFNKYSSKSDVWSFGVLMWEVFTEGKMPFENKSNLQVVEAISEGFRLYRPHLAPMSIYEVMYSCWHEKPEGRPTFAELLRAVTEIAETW
Description: Inhibition of Txk autophosphorylation using [33P]ATP by scintillation counting.

The target in test [3] is Tyrosine-protein kinase Lck (Homo sapiens, UniProt P06239). Description: Inhibition of Lck autophosphorylation using [33P]ATP by scintillation counting.
In test [4] the target is Tyrosine-protein kinase SYK (Homo sapiens, UniProt P43405). Kind of test: Inhibition of recombinant N-terminus His6 tagged Syk (343 to 635) autophosphorylation expressed in insect Sf9 cells using [33P]ATP by scintillation counting.

Chain of Tyrosine-protein kinase Lck (P06239 whole entry): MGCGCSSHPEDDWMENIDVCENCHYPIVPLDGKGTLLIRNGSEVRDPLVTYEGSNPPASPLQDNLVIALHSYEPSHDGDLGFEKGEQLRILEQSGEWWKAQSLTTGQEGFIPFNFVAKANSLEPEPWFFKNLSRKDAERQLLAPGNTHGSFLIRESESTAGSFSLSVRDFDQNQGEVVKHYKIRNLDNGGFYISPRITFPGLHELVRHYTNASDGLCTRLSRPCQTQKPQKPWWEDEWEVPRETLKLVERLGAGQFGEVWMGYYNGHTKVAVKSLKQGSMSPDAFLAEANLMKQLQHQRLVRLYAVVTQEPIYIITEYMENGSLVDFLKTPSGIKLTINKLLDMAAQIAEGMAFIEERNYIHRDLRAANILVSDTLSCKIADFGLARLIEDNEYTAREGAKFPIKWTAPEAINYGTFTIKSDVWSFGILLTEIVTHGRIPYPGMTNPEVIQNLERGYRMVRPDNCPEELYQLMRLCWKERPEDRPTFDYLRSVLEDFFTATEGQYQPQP

Broadly, the IC50 is the point on the concentration scale where inhibition reaches its midpoint. As to `Oc1ccc2nc(-c3n[nH]c4ccccc34)[nH]c2c1`, in test [1], the IC50 was found to be 200 nM.

As for `CC(C)(O)c1ccc2cc(-c3n[nH]c4ccsc34)[nH]c2c1`, the figures for the IC50 in test [1], in test [2] and in test [3] were 1.9 nM, 73.8 nM and 63.9 nM, respectively.

Take `CCC(O)(CC)c1ccc2cc(-c3n[nH]c4ccsc34)[nH]c2c1`: the results for the half-maximal inhibitory concentration (IC50) in test [2], in test [4] and in test [3] were 66.5 nM, 186 nM and 1100 nM, respectively.

On to `CCC(O)(CC)c1cc(OCCN2CCOCC2)c2cc(-c3n[nH]c4ccsc34)[nH]c2c1`, for which the values for the half-maximal inhibitory concentration (IC50) in test [2], in test [4] and in test [3] were 55.7 nM, 287 nM and 162 nM, respectively.

In the case of `CCC(O)(CC)c1ccc2c(-c3ccc(OC)cc3)c(-c3n[nH]c4ccsc34)[nH]c2c1`, the IC50 stood at 241 nM in test [2], 939 nM in test [4] and 3180 nM in test [3].

Turning to `CCC(O)(CC)c1ccc2cc(-c3n[nH]c4cc(C(F)F)sc34)[nH]c2c1`, the IC50 in test [2] was determined as 77.5 nM; in test [3], 39.2 nM.

As to `CCC(O)(CC)c1ccc2cc(-c3n[nH]c4cc(-c5ccccc5)sc34)[nH]c2c1`, the values for the IC50 in test [2], in test [4] and in test [3] were 441 nM, 2470 nM and 203 nM, respectively.
